Data: US20230219965A1 (KSQ Therapeutics, Inc., priority 2020, published 2023)

Target: USP1/UAF1 enzyme (Homo sapiens, UniProt O94782)
Experiment: USP1/UAF1 deubiquitination assay (ubiquitin-rhodamine 110 substrate)
Assay type: biochemical
Details: read-out: USP1 IC50 (Ub-Rho)
Experimental: Certain Compounds of the Disclosure were assessed for USP1/UAF1 activity in a Ubiquitin Rhodamine assay modified from those described previously.
Deubiquitinase activity was measured using ubiquitin-rhodamine 110 as a substrate. Cleavage of the amide bond between rhodamine and the c-terminal glycine of ubiquitin yields an increase in fluorescence signal. The assay was conducted in 20 μl total volume of assay buffer (50 mM Tris-HCl, pH 7.8, 0.5 mM EDTA, 0.01% Bovine Serum Albumin, 1 mM DTT, 0.01% Tween-20), and 0.05 nM USP1/UAF1 enzyme. Reaction was initiated by addition of 150 nM Ubiquitin-rhodamine (Boston Biochem) substrate.
Compounds of the Disclosure, dissolved in DMSO were tested in dose response format, beginning at […].
The example compounds listed below were added to enzyme/assay buffer mix and incubated 10 min. Substrate mix was added, and reaction mix was read in kinetic mode for 30 min at Ex480/Em540 and IC50 response curves were plotted.
Data for all assay formats was calculated as percent inhibition compared with control wells. Percent inhibition was calculated using the following equation: % inhibition=100×[1−(X−min)/(max−min)], where X is the raw data readout, min is the average of the no enzyme control wells (n=32), max is the average of the DMSO control well (n=32). IC50 values were calculated using the standard four parameter curve fitting algorithm in either Prism GraphPad (La Jolla, Calif.) software, or Collaborative Drug Discovery (Burlingame, Calif.) CDD Vault. See Chem. Biol. 20(1): 55-62 (Jan. 24, 2013); Bioorg. Med. Chem. Lett. 23(20): 5660-5666 (Oct. 15, 2013).

Sequence of USP1/UAF1 enzyme (O94782 whole entry): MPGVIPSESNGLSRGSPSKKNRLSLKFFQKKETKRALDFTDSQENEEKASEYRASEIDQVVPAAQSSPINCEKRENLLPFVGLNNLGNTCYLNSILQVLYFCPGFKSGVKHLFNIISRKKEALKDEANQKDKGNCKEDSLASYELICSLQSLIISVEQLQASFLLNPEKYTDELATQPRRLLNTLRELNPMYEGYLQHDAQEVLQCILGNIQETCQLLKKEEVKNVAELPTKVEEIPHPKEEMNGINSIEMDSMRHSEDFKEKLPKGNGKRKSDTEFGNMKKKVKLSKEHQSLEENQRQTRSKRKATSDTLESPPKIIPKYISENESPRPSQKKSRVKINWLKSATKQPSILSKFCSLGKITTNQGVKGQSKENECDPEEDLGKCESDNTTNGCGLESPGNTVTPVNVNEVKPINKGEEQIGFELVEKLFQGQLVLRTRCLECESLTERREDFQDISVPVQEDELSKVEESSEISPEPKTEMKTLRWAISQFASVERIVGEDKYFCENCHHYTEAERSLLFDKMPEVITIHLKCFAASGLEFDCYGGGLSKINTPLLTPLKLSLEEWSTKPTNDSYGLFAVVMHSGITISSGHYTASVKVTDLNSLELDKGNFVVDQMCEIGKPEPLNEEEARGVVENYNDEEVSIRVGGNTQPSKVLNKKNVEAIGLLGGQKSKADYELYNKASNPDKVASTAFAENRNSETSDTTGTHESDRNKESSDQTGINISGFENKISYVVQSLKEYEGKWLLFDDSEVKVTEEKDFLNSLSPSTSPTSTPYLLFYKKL
Sequence of USP1/UAF1 enzyme (Q8TAF3 whole entry partner): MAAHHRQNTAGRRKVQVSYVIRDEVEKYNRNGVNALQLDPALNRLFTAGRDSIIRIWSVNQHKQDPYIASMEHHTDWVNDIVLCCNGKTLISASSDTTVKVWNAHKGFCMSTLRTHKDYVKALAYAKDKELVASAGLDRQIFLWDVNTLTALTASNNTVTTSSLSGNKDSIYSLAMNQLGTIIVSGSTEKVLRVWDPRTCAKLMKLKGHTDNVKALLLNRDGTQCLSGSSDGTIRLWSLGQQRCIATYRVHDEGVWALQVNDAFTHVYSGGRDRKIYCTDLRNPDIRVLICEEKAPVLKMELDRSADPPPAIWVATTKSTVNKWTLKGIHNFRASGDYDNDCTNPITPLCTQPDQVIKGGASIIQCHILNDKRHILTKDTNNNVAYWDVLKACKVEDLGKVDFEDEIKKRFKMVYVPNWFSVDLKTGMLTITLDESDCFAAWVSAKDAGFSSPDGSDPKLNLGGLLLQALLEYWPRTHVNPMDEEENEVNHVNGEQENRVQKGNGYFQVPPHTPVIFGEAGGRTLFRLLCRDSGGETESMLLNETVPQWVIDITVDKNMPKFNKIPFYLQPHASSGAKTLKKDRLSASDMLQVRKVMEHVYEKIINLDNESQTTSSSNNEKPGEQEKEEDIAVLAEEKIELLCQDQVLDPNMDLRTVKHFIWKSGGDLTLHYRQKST

Q: How did the IC50 turn out when CCn1cc(C#N)nc1-c1ccc([C@@H](C)N2C(=O)CCn3nc(-c4c(OC)ncnc4C4CC4)nc32)cc1 [Example 199] was run?
A: The IC50 was 100 to 500 nM.

Q: How did the IC50 turn out when COc1ncnc(C2CC2)c1-c1nc2n(n1)CCC(=O)N2C(C)c1ccc(-n2nc(C(F)(F)F)cc2OCC(F)F)cc1 (stereo not shown) [Example 214] was run?
A: The IC50 was less than 100 nM.

Q: How did the IC50 turn out when CC(c1ccc(-n2nc(C(F)(F)F)cc2OCC(F)F)cc1)N1C(=O)CCn2nc(-c3c(Cl)cnn3C(C)C)nc21 (stereo not shown) [Example 215] was run?
A: Its IC50 is 100 to 500 nM.

Q: Which IC50 does the source give for COc1ncnc(C2CC2)c1-c1nc2n(n1)CCC(=O)N2C(C)c1ccc(-c2nc(C(F)(F)F)cn2C(C)C)c(F)c1OC (stereo not shown) [Example 218] here?
A: Its IC50 is 100 to 500 nM.

Q: With COc1ncnc(C2CC2)c1-c1nc2n(n1)CCC(=O)N2C(C)c1ccc(-c2ncccc2N(C)C)cc1 (stereo not shown) [Example 219] as the compound, how does the IC50 read?
A: Its IC50 is less than 100 nM.

Q: For COc1ncnc(C2CC2)c1-c1nc2n(n1)CCC(=O)N2C(C)c1ccc(-c2ncccc2OC(C)C)cc1 (stereo not shown) [Example 220], which IC50 is on record?
A: Its IC50 is less than 100 nM.

Q: CNCc1cc(C(F)(F)F)nn1-c1ccc(CN2C(=O)CCn3nc(-c4c(Cl)cnn4C(C)C)cc32)cc1 [Example 224, 2-(4-chloro-1-isopropyl-1H-pyrazol-5-yl)-4-(4-(5-((methylamino)methyl)-3-(trifluoromethyl)-1H-pyrazol-1-yl)benzyl)-6,7-dihydropyrazolo[1,5-α]pyrimidin-5(4H)-one] was tested. Which IC50 did it give?
A: Its IC50 is 100 to 500 nM.

Q: For CNCc1cc(C(F)(F)F)nn1-c1ccc(CN2C(=O)CCn3nc(-c4c(OC)ncnc4C4CC4)cc32)cc1 [Example 225, 2-(4-cyclopropyl-6-methoxypyrimidin-5-yl)-4-(4-(5-((methylamino)methyl)-3-(trifluoromethyl)-1H-pyrazol-1-yl)benzyl)-6,7-dihydropyrazolo[1,5-a]pyrimidin-5(4H)-one], which IC50 is on record?
A: The IC50 was 100 to 500 nM.

Q: With CC(C)n1ncc(Cl)c1-c1cc2n(n1)CCC(=O)N2Cc1ccc(OCc2ccccn2)cc1 [Example 226, 2-(4-chloro-1-isopropyl-1H-pyrazol-5-yl)-4-(4-(pyridin-2-ylmethoxy)benzyl)-6,7-dihydropyrazolo[1,5-α]pyrimidin-5(4H)-one] as the compound, how does the IC50 read?
A: The IC50 was 100 to 500 nM.

Q: CCn1cc(C(F)(F)F)nc1-c1ccc(CN2C(=O)CCn3nc(-c4c(Cl)cnn4C(C)CO)cc32)cc1 (stereo not drawn) [Example 227, 2-(4-chloro-1-(1-hydroxypropan-2-yl)-1H-pyrazol-5-yl)-4-(4-(1-ethyl-4-(trifluoromethyl)-1H-imidazol-2-yl)benzyl)-6,7-dihydropyrazolo[1,5-α]pyrimidin-5(4H)-one] was tested. Which IC50 did it give?
A: Its IC50 is 100 to 500 nM.

Q: How did the IC50 turn out when CC(C)n1cc(C(F)(F)F)nc1-c1ccc(CN2C(=O)CCn3nc(-c4c(Cl)cnn4C(C)C)nc32)cc1OCCO [Example 228, 2-(4-chloro-1-isopropyl-1H-pyrazol-5-yl)-4-(3-(2-hydroxyethoxy)-4-(1-isopropyl-4-(trifluoromethyl)-1H-imidazol-2-yl)benzyl)-6,7-dihydro-[1,2,4]triazolo[1,5-α]pyrimidin-5(4H)-one] was run?
A: The IC50 was 100 to 500 nM.

Q: CCn1cc(C(F)(F)F)nc1-c1ccc(CN2C(=O)CCn3nc(-c4c(Cl)cnn4C(C)C)c(N)c32)cc1 [Example 229, 3-amino-2-(4-chloro-1-isopropyl-1H-pyrazol-5-yl)-4-(4-(1-ethyl-4-(trifluoromethyl)-1H-imidazol-2-yl)benzyl)-6,7-dihydropyrazolo[1,5-α]pyrimidin-5(4H)-one] was tested. Which IC50 did it give?
A: Its IC50 is 100 to 500 nM.

Q: How did the IC50 turn out when CC(C)n1ncc(Cl)c1-c1cc2n(n1)CCC(=O)N2Cc1ccc(-n2ccc(N3CCOCC3)n2)cc1 [Example 230, 2-(4-chloro-1-isopropyl-1H-pyrazol-5-yl)-4-(4-(3-morpholino-1H-pyrazol-1-yl)benzyl)-6,7-dihydropyrazolo[1,5-α]pyrimidin-5(4H)-one] was run?
A: Its IC50 is greater than 500 nM.

Q: How did the IC50 turn out when CCn1cc(C(F)(F)F)nc1-c1ccc(CN2C(=O)C(NC(C)=O)Cn3nc(-c4c(Cl)cnn4C(C)C)cc32)cc1 (stereo not drawn) [Example 234, N-(2-(4-chloro-1-isopropyl-1H-pyrazol-5-yl)-4-(4-(1-ethyl-4-(trifluoromethyl)-1H-imidazol-2-yl)benzyl)-5-oxo-4,5,6,7-tetrahydropyrazolo[1,5-α]pyrimidin-6-yl)acetamide] was run?
A: Its IC50 is 100 to 500 nM.

Q: CCn1cc(C(F)(F)F)nc1-c1ccc(NC2CCCn3nc(-c4c(Cl)cnn4C(C)C)nc32)cc1 (stereo not drawn) [Example 256, 2-(4-chloro-1-isopropyl-1H-pyrazol-5-yl)-N-(4-(1-ethyl-4-(trifluoromethyl)-1H-imidazol-2-yl)phenyl)-5,6,7,8-tetrahydro-[1,2,4]triazolo[1,5-α]pyridin-8-amine] was tested. Which IC50 did it give?
A: Its IC50 is 100 to 500 nM.

Q: CCn1cc(C(F)(F)F)nc1-c1ccc(N(C)C2CCCn3nc(-c4c(Cl)cnn4C(C)C)nc32)cc1F (stereo not shown) [Example 259] was tested. Which IC50 did it give?
A: The IC50 was 100 to 500 nM.

Q: Which IC50 does the source give for CCn1cc(C(F)(F)F)nc1-c1ccc(N(C)C2CCCn3nc(-c4c(Cl)cnn4C(C)C)nc32)cc1 (stereo not shown) [Example 260] here?
A: Its IC50 is 100 to 500 nM.

Q: CCn1cc(C(F)(F)F)nc1-c1ccc(CN2C(=O)CCn3nc(-c4ccnn4C(C)C)c(Cl)c32)cc1 [Example 268, 3-chloro-4-(4-(1-ethyl-4-(trifluoromethyl)-1H-imidazol-2-yl)benzyl)-2-(1-isopropyl-1H-pyrazol-5-yl)-6,7-dihydropyrazolo[1,5-α]pyrimidin-5(4H)-one] was tested. Which IC50 did it give?
A: The IC50 was greater than 500 nM.

Q: How did the IC50 turn out when CCn1cc(C(F)(F)F)nc1-c1ccc(NC2CCCn3nc(-c4ccnn4C(C)C)c(Cl)c32)cc1F (stereo not drawn) [Example 269, 3-chloro-N-(4-(1-ethyl-4-(trifluoromethyl)-1H-imidazol-2-yl)-3-fluorophenyl)-2-(1-isopropyl-1H-pyrazol-5-yl)-4,5,6,7-tetrahydropyrazolo[1,5-α]pyridin-4-amine] was run?
A: The IC50 was greater than 500 nM.

Q: With CC(C)n1ncc(Cl)c1-c1cc2n(n1)CCC(=O)N2Cc1ccc(-c2ncccc2OC(F)F)c(Cl)c1 [Example 271, 2-(4-chloro-1-isopropyl-1H-pyrazol-5-yl)-4-(3-chloro-4-(3-(difluoromethoxy)pyridin-2-yl)benzyl)-6,7-dihydropyrazolo[1,5-α]pyrimidin-5(4H)-one] as the compound, how does the IC50 read?
A: Its IC50 is 100 to 500 nM.

Q: How did the IC50 turn out when CC(C)n1ncc(Cl)c1-c1cc2n(n1)CCC(=O)N2Cc1ccc(-c2cncc(C(F)(F)F)n2)c(Cl)c1 [Example 272] was run?
A: The IC50 was greater than 500 nM.

Q: With CC(C)n1ncc(Cl)c1-c1cc2n(n1)CCC(=O)N2Cc1ccc(-c2nccc(C(F)(F)F)n2)c(Cl)c1 [Example 273] as the compound, how does the IC50 read?
A: Its IC50 is greater than 500 nM.

Q: Which IC50 does the source give for COc1nccnc1-c1ccc(CN2C(=O)CCn3nc(-c4c(Cl)cnn4C(C)C)cc32)cc1Cl [Example 274] here?
A: The IC50 was 100 to 500 nM.

Q: For Cc1cn2ccnc(-c3ccc(CN4C(=O)CCn5nc(-c6c(Cl)cnn6C(C)C)cc54)cc3Cl)c2n1 [Example 275], which IC50 is on record?
A: Its IC50 is 100 to 500 nM.

Q: With CC(C)n1ncc(Cl)c1-c1cc2n(n1)CCC(=O)N2Cc1ccc(-c2ncnn3cccc23)c(Cl)c1 [Example 276] as the compound, how does the IC50 read?
A: The IC50 was 100 to 500 nM.

Q: How did the IC50 turn out when Cc1nc(-c2ccc(CN3C(=O)CCn4nc(-c5c(Cl)cnn5C(C)C)cc43)cc2Cl)cn1C [Example 277] was run?
A: Its IC50 is greater than 500 nM.

Q: For Cc1ccnnc1-c1ccc(CN2C(=O)CCn3nc(-c4c(Cl)cnn4C(C)C)cc32)cc1Cl [Example 278], which IC50 is on record?
A: The IC50 was greater than 500 nM.

Q: How did the IC50 turn out when CC(C)n1ncc(Cl)c1-c1cc2n(n1)CCC(=O)N2Cc1ccc(-c2ncccc2OC(F)(F)F)c(Cl)c1 [Example 279] was run?
A: The IC50 was greater than 500 nM.

Q: For Cc1ccn2ncnc(-c3ccc(CN4C(=O)CCn5nc(-c6c(Cl)cnn6C(C)C)cc54)cc3Cl)c12 [Example 280], which IC50 is on record?
A: The IC50 was greater than 500 nM.

Q: How did the IC50 turn out when Cc1cc(-c2ccc(CN3C(=O)CCn4nc(-c5c(Cl)cnn5C(C)C)cc43)cc2Cl)n(C)n1 [Example 281] was run?
A: Its IC50 is greater than 500 nM.

Q: How did the IC50 turn out when Cc1ccc(F)c(-c2ccc(CN3C(=O)CCn4nc(-c5c(Cl)cnn5C(C)C)cc43)cc2Cl)n1 [Example 282] was run?
A: The IC50 was greater than 500 nM.

Q: For CC(C)n1ncc(Cl)c1-c1cc2n(n1)CCC(=O)N2Cc1ccc(-c2ncccc2C(F)(F)F)c(Cl)c1 [Example 283], which IC50 is on record?
A: Its IC50 is greater than 500 nM.

Q: How did the IC50 turn out when Cc1ncc(-c2ccc(CN3C(=O)CCn4nc(-c5c(Cl)cnn5C(C)C)cc43)cc2Cl)n1C [Example 284] was run?
A: Its IC50 is greater than 500 nM.

Q: How did the IC50 turn out when COc1ccc(-c2ccc(CN3C(=O)CCn4nc(-c5c(Cl)cnn5C(C)C)cc43)cc2Cl)nc1 [Example 285] was run?
A: Its IC50 is greater than 500 nM.

Q: With COc1ccnc(-c2ccc(CN3C(=O)CCn4nc(-c5c(Cl)cnn5C(C)C)cc43)cc2Cl)n1 [Example 286] as the compound, how does the IC50 read?
A: Its IC50 is greater than 500 nM.

Q: With CC(C)n1ncc(Cl)c1-c1cc2n(n1)CCC(=O)N2Cc1ccc(-c2nn(C)cc2C#N)c(Cl)c1 [Example 287] as the compound, how does the IC50 read?
A: Its IC50 is greater than 500 nM.

Q: Cc1nn(C)c(C)c1-c1ccc(CN2C(=O)CCn3nc(-c4c(Cl)cnn4C(C)C)cc32)cc1Cl [Example 289] was tested. Which IC50 did it give?
A: The IC50 was greater than 500 nM.

Q: How did the IC50 turn out when COc1cn(C)nc1-c1ccc(CN2C(=O)CCn3nc(-c4c(Cl)cnn4C(C)C)cc32)cc1Cl [Example 292] was run?
A: Its IC50 is 100 to 500 nM.

Q: COc1ccnnc1-c1ccc(CN2C(=O)CCn3nc(-c4c(Cl)cnn4C(C)C)cc32)cc1Cl [Example 293] was tested. Which IC50 did it give?
A: Its IC50 is greater than 500 nM.

Q: How did the IC50 turn out when COc1ncnc(C2CC2)c1-c1nc2n(n1)CCC(=O)N2Cc1ccc(-c2ncccc2OC(C)C)c(Cl)c1 [Example 295] was run?
A: Its IC50 is 100 to 500 nM.

Q: For CC(C)n1cc(F)nc1-c1ccc(CN2C(=O)CCn3nc(-c4c(Cl)cnn4C(C)C)cc32)cc1Cl [Example 297], which IC50 is on record?
A: Its IC50 is 100 to 500 nM.

Q: COc1c(C)ccnc1-c1ccc(CN2C(=O)CCn3nc(-c4c(Cl)cnn4C(C)C)cc32)cc1Cl [Example 298] was tested. Which IC50 did it give?
A: Its IC50 is 100 to 500 nM.

Q: With CC(C)n1ncc(Cl)c1-c1cc2n(n1)CCC(=O)N2Cc1ccc(-c2nccc3c2N(C)CCO3)c(Cl)c1 [Example 299] as the compound, how does the IC50 read?
A: The IC50 was greater than 500 nM.
